What all share (format): in vivo
In one assay the test system is Puccinia triticina. The assay can be described thus: Fungicide mobility (dropline mobility test), wheat brown rust (PUCCRT). Conditions: 1 ug/leaf, disease-free zone as percent of distance from marked line to leaf tip; for Dropline Mobility Test PUCCRT 1 DPM: 1 Day Protectant Mobility; for Dropline Mobility Test PUCCRT 3 DCM: 3 Day Curative Mobility. The procedure, abridged:
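Yuma wheat primary leaves, held horizontal, got a 2 μl drop of EC-formulated compound in water with 110 ppm Triton X-100 on a line 5 cm from the tip; 6 replicates. Inoculation 1 day after or 3 days before application. Acropetal disease-free zone measured as percent of line-to-tip distance once control rust fully expressed.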

For another assay, the system named is Venturia inaequalis. The assay is described as follows: Apple scab (VENTIN) fungicidal activity. Conditions: 24 h, 1 Day Protectant, read-out: Disease Control VENTIN 1DP. Here is the method: Technical grades of materials were dissolved in acetone, which were then mixed with nine volumes of water containing 110 ppm Triton X-100. The fungicide solutions were applied onto wheat seedlings using an automated booth sprayer to run-off. All sprayed plants were allowed to air dry prior to further handling. Wheat plants (variety Yuma) were grown from seed in a greenhouse in 50% mineral soil/50% soil-less Metro mix until the first leaf was fully emerged, with 7-10 seedlings per pot. These plants were inoculated with an aqueous spore suspension of Septoria tritici either prior to or after fungicide treatments. After inoculation the plants were kept in 100% relative humidity (one day in a dark dew chamber followed by two to three days in a lighted dew chamber at 20° C.) to permit spores to germinate and infect the leaf. The plants were then transferred to a greenhouse set at 20° C. for disease to develop. When disease symptoms were fully expressed on the 1st leaves of untreated plants, infection levels were assessed on a scale of 0 to 100 percent disease severity. Percent disease control was calculated using the ratio of disease severity on treated plants relative to untreated plants. Evaluation of Fungicidal Activity: Apple Scab (Venturia Inaequalis; Bayer Code […]) Apple seedlings (variety McIntosh) were grown in soil-less Metro mix, with one plant per pot. Seedlings with two expanding young leaves at the top (older leaves at bottom of the plants were trimmed) were used in the test. Plants were inoculated with a spore suspension of Venturia inaequalis 24 hr after fungicide treatment and kept in a 22° C. dew chamber with 100% RH for 48 hr, and then moved to a greenhouse set at 20° C. for disease to develop. Fungicide formulation, application and disease assessment on the sprayed leaves followed the procedures as described in the Example A.

The test system of assay [1] is Glomerella lagenarium; Anamorph: Colletotricum lagenarium. The assay can be described thus: Cucumber anthracnose (COLLLA) fungicidal activity. Conditions: Colletotrichum orbiculare, 24 h, 1 Day Protectant, read-out: Disease Control COLLLA 1DP. Here is the method:
Technical grades of materials were dissolved in acetone, which were then mixed with nine volumes of water containing 110 ppm Triton X-100. The fungicide solutions were applied onto wheat seedlings using an automated booth sprayer to run-off. All sprayed plants were allowed to air dry prior to further handling. Wheat plants (variety Yuma) were grown from seed in a greenhouse in 50% mineral soil/50% soil-less Metro mix until the first leaf was fully emerged, with 7-10 seedlings per pot. These plants were inoculated with an aqueous spore suspension of Septoria tritici either prior to or after fungicide treatments. After inoculation the plants were kept in 100% relative humidity (one day in a dark dew chamber followed by two to three days in a lighted dew chamber at 20° C.) to permit spores to germinate and infect the leaf. The plants were then transferred to a greenhouse set at 20° C. for disease to develop. When disease symptoms were fully expressed on the 1st leaves of untreated plants, infection levels were assessed on a scale of 0 to 100 percent disease severity. Percent disease control was calculated using the ratio of disease severity on treated plants relative to untreated plants. Evaluation of Fungicidal Activity: Cucumber Anthracnose (Glomerella Lagenarium; Anamorph: Colletotricum Lagenarium; Bayer Code COLLLA) Cucumber seedlings (variety Bush Pickle) were propagated in soil-less Metro mix, with each pot having one plant, and used in the test when 12 to 14 days old. Test plants were inoculated with an aqueous spore suspension of Colletotricum lagenarium 24 hr after fungicide treatments. After inoculation the plants were kept in a dew room at 22° C. with 100% relative humidity for 48 hr to permit spores to germinate and infect the leaf. The plants were then transferred to a growth room set at 22° C. for disease to develop. Fungicide formulation, application and disease assessment on the sprayed leaves followed the procedures as described in the Example A.

Assay [2] has as its system Blumeria graminis f. sp. hordei. The assay can be described thus: Barley powdery mildew (ERYSGH) fungicidal activity. Conditions: 24 h, 1 Day Protectant, read-out: Disease Control ERYSGH 1DP. As for the experimental part:
Technical grades of materials were dissolved in acetone, which were then mixed with nine volumes of water containing 110 ppm Triton X-100. The fungicide solutions were applied onto wheat seedlings using an automated booth sprayer to run-off. All sprayed plants were allowed to air dry prior to further handling. Wheat plants (variety Yuma) were grown from seed in a greenhouse in 50% mineral soil/50% soil-less Metro mix until the first leaf was fully emerged, with 7-10 seedlings per pot. These plants were inoculated with an aqueous spore suspension of Septoria tritici either prior to or after fungicide treatments. After inoculation the plants were kept in 100% relative humidity (one day in a dark dew chamber followed by two to three days in a lighted dew chamber at 20° C.) to permit spores to germinate and infect the leaf. The plants were then transferred to a greenhouse set at 20° C. for disease to develop. When disease symptoms were fully expressed on the 1st leaves of untreated plants, infection levels were assessed on a scale of 0 to 100 percent disease severity. Percent disease control was calculated using the ratio of disease severity on treated plants relative to untreated plants. Evaluation of Fungicidal Activity: Barley Powdery Mildew (Blumeria Graminis f. sp. Hordei; Synonym: Erysiphe Graminis f. sp. Hordei; Bayer Code […]) Barley seedlings (variety Harrington) were propagated in soil-less Metro mix, with each pot having 8 to 12 plants, and used in the test when first leaf was fully emerged. Test plants were inoculated by dusting with infected stock plants 24 hr after fungicide treatments. After inoculation the plants were kept in a greenhouse set at 20° C. for disease to develop. Fungicide formulation, application and disease assessment on the sprayed leaves followed the procedures as described in the Example A.

With `COc1ccnc(C(=O)N[C@H]2COC[C@H](Cc3ccccc3)[C@@H](OCC(C)C)[C@H](C)OC2=O)c1O` [Compound 2, N-((3S,7S,8R,9S)-7-benzyl-8-isobutoxy-9-methyl-2-oxo-1,5-dioxonan-3-yl)-3-hydroxy-4-methoxypicolinamide], in the assay with Puccinia triticina, the “Dropline Mobility Test PUCCRT 1 DPM” value was “B (More than 0-Less than 80)” and the “Dropline Mobility Test PUCCRT 3 DCM” value is reported as “B (More than 0-Less than 80)”. The pest or weed control at 100 ppm in the assay with Venturia inaequalis was 80 to 100%.
As to `COc1ccnc(C(=O)N[C@H]2COC[C@H](Cc3ccccc3)[C@@H](OCC(C)C)[C@H](C)OC2=O)c1OCOC(=O)C(C)C` [Compound 3], the pest or weed control at 100 ppm was 80 to 100% in assay [1], 80 to 100% in assay [2] and 0 to 80% in the assay on Venturia inaequalis. The “Dropline Mobility Test PUCCRT 1 DPM” value in the assay with Puccinia triticina is on record as “B (More than 0-Less than 80)”. Besides, in the assay on Puccinia triticina, the “Dropline Mobility Test PUCCRT 3 DCM” value is “B (More than 0-Less than 80)”.
For `COc1ccnc(C(=O)N[C@H]2COC[C@H](Cc3ccccc3)[C@@H](OCC(C)C)[C@H](C)OC2=O)c1OCOC(=O)C(C)(C)C` [Compound 7], the pest or weed control at 100 ppm in assay [2] lay in the range of 80 to 100%. For the same molecule, in the assay with Puccinia triticina, the “Dropline Mobility Test PUCCRT 1 DPM” value is “B (More than 0-Less than 80)” and the “Dropline Mobility Test PUCCRT 3 DCM” value was “B (More than 0-Less than 80)”. In addition, in the assay with Venturia inaequalis, the pest or weed control at 100 ppm lay in the range of 0 to 80%.
Turning to `COc1ccnc(C(=O)N[C@H]2COC[C@H](Cc3ccccc3)[C@@H](OCC(C)C)[C@H](C)OC2=O)c1OCOC(C)=O` [Compound 8, (2-((3S,7S,8R,9S)-7-benzyl-8-isobutoxy-9-methyl-2-oxo-1,5-dioxonan-3-ylcarbamoyl)-4-methoxypyridin-3-yloxy)methyl acetate], the pest or weed control at 100 ppm (in assay [1]; in assay [2]; with Venturia inaequalis) was 80 to 100% throughout. The “Dropline Mobility Test PUCCRT 1 DPM” value with Puccinia triticina is listed as “B (More than 0-Less than 80)”. Also, the “Dropline Mobility Test PUCCRT 3 DCM” value in the assay with Puccinia triticina is “B (More than 0-Less than 80)”.
Consider `COc1ccnc(C(=O)N[C@H]2COC[C@H](Cc3ccccc3)[C@@H](OCC(C)C)[C@H](C)OC2=O)c1OC(C)=O` [Compound 9, 2-(((3S,7S,8R,9S)-7-benzyl-8-isobutoxy-9-methyl-2-oxo-1,5-dioxonan-3-yl)carbamoyl)-4-methoxypyridin-3-yl acetate], for which the pest or weed control at 100 ppm in assay [2] lay in the range of 80 to 100%. Further, in the assay on Puccinia triticina, the “Dropline Mobility Test PUCCRT 1 DPM” value was “B (More than 0-Less than 80)” and the “Dropline Mobility Test PUCCRT 3 DCM” value is reported as “B (More than 0-Less than 80)”. Further, the pest or weed control at 100 ppm with Venturia inaequalis lay within 80 to 100%.
`COc1ccnc(C(=O)N[C@H]2COC[C@H](Cc3ccccc3)[C@@H](OCC(C)C)[C@H](C)OC2=O)c1OC(=O)OC(C)C` [Compound 10, 2-(((3S,7S,8R,9S)-7-benzyl-8-isobutoxy-9-methyl-2-oxo-1,5-dioxonan-3-yl)carbamoyl)-4-methoxypyridin-3-yl isopropyl carbonate]: the pest or weed control at 100 ppm in assay [2] was in the range of 80 to 100%. In addition, in the assay on Puccinia triticina, the “Dropline Mobility Test PUCCRT 1 DPM” value is “B (More than 0-Less than 80)” and the “Dropline Mobility Test PUCCRT 3 DCM” value is “B (More than 0-Less than 80)”. Further, in the assay on Venturia inaequalis, the pest or weed control at 100 ppm fell in the range of 80 to 100%.
Consider `COc1ccnc(C(=O)N[C@H]2COC[C@H](Cc3ccccc3)[C@@H](OCCC(=O)N(C)C)[C@H](C)OC2=O)c1OCOC(C)=O` [Compound 15], for which the pest or weed control at 100 ppm (in assay [1]; with Venturia inaequalis) was 0 to 80% each time.
Turning to `COCCCO[C@@H]1[C@@H](Cc2ccccc2)COC[C@H](NC(=O)c2nccc(OC)c2OCOC(C)=O)C(=O)O[C@H]1C` [Compound 16], the pest or weed control at 100 ppm in assay [1] was in the range of 80 to 100%; in assay [2], 80 to 100%; with Venturia inaequalis, 0 to 80%.
Consider `CCCO[C@@H]1[C@@H](Cc2ccccc2)COC[C@H](NC(=O)c2nccc(OC)c2OCOC(C)=O)C(=O)O[C@H]1C` [Compound 22], for which the pest or weed control at 100 ppm (in assay [1]; in assay [2]; in the assay with Venturia inaequalis) was 80 to 100% each time. For the same molecule, the “Dropline Mobility Test PUCCRT 1 DPM” value with Puccinia triticina is recorded as “B (More than 0-Less than 80)”. In the assay with Puccinia triticina, the “Dropline Mobility Test PUCCRT 3 DCM” value is “B (More than 0-Less than 80)”.
Consider `COc1ccnc(C(=O)N[C@H]2COC[C@H](Cc3ccccc3)[C@@H](OCCCC(F)(F)F)[C@H](C)OC2=O)c1OCOC(C)=O` [Compound 23], for which the pest or weed control at 100 ppm in assay [1] was 80 to 100%; in assay [2], 80 to 100%; with Venturia inaequalis it was 0 to 80%. For the same molecule, the “Dropline Mobility Test PUCCRT 1 DPM” value in the assay with Puccinia triticina is recorded as “B (More than 0-Less than 80)”. Further, the “Dropline Mobility Test PUCCRT 3 DCM” value with Puccinia triticina is recorded as “B (More than 0-Less than 80)”.
For the molecule `COc1ccnc(C(=O)N[C@H]2COC[C@H](Cc3ccccc3)[C@@H](Oc3ccccc3)[C@H](C)OC2=O)c1OCOC(C)=O` [Compound 40], the pest or weed control at 100 ppm (in assay [1]; with Venturia inaequalis) was 80 to 100% in each case. Besides, the “Dropline Mobility Test PUCCRT 1 DPM” value in the assay on Puccinia triticina is “B (More than 0-Less than 80)”. In addition, the “Dropline Mobility Test PUCCRT 3 DCM” value in the assay with Puccinia triticina is “B (More than 0-Less than 80)”.
As to `COc1ccnc(C(=O)N[C@H]2COC[C@H](Cc3ccccc3)[C@@H](OCC(F)F)[C@H](C)OC2=O)c1OCOC(C)=O` [Compound 44], in the assay with Puccinia triticina, the “Dropline Mobility Test PUCCRT 1 DPM” value is listed as “B (More than 0-Less than 80)” and the “Dropline Mobility Test PUCCRT 3 DCM” value is on record as “B (More than 0-Less than 80)”. Further, the pest or weed control at 100 ppm with Venturia inaequalis lay in the range of 0 to 80%.
Take `COc1ccnc(C(=O)N[C@H]2COC[C@H](Cc3ccccc3)[C@@H](OCCC(C)OC)[C@H](C)OC2=O)c1OCOC(C)=O` (stereo partly shown) [Compound 46]: in the assay on Puccinia triticina, the “Dropline Mobility Test PUCCRT 1 DPM” value is reported as “A (80-100)” and the “Dropline Mobility Test PUCCRT 3 DCM” value is “A (80-100)”. In addition, the pest or weed control at 100 ppm in the assay with Venturia inaequalis is 80 to 100%.
On to `COc1ccnc(C(=O)N[C@H]2COC[C@H](Cc3ccccc3)[C@@H](OC3CCCC3)[C@H](C)OC2=O)c1OCOC(C)=O` [Compound 106], for which the pest or weed control at 100 ppm in assay [1] and in assay [2] was 80 to 100% each time.
As for `COc1ccnc(C(=O)N[C@H]2COC[C@H](Cc3ccccc3)[C@@H](OC3CCCC3)[C@H](C)OC2=O)c1OC(C)=O` [Compound 107], the pest or weed control at 100 ppm in assay [1] was 80 to 100%; in assay [2] it was 80 to 100%; with Venturia inaequalis, 0 to 80%.
On to `COc1ccnc(C(=O)N[C@H]2COC[C@H](Cc3ccccc3)[C@@H](OC3CCCC3)[C@H](C)OC2=O)c1OCOC(=O)C(C)C` [Compound 108], for which the pest or weed control at 100 ppm (in assay [1]; in assay [2]; in the assay on Venturia inaequalis) was 80 to 100% each time.

The values are drawn from patent US8835462B2, “Macrocyclic picolinamides as fungicides” (Dow AgroSciences LLC, priority 2012, dated 2014).
